#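 Compound exposure: 48 hours, 5 concentrations, 96-well plates. The concentration for 50% growth inhibition is given as GI50. TGI marks complete inhibition of growth.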 Where a SMILES comes first, the peptide text is derived from it. The star is where a group is joined. Fmoc = O=C(OCC1c2ccccc2-c2ccccc21)*; Boc = CC(C)(C)OC(=O)*
# Experiments:
# Test in all cases: DTP human tumour cell line panel, 48 h
# OVCAR-3 ovarian = tested on: OVCAR-3 ovarian
# HCC-2998 colon = tested on: HCC-2998 colon
# TK-10 renal = tested on: TK-10 renal
# SNB-75 CNS = tested on: SNB-75 CNS
# LXFL 529 NSCLC = tested on: LXFL 529 NSCLC
# M19-MEL melanoma = tested on: M19-MEL melanoma
# DLD-1 colon = tested on: DLD-1 colon
# DMS 114 small cell lung = tested on: DMS 114 small cell lung
# XF 498 CNS = tested on: XF 498 CNS
# KM20L2 colon = tested on: KM20L2 colon
# SNB-78 CNS = tested on: SNB-78 CNS
# DMS 273 small cell lung = tested on: DMS 273 small cell lung
# HOP-18 NSCLC = tested on: HOP-18 NSCLC
Compound,TGI (OVCAR-3 ovarian),TGI (HCC-2998 colon),TGI (TK-10 renal),TGI (SNB-75 CNS),other results
C1CC[C@H]2SSC3CCCC[C@H]3SSC2C1 (stereo partly drawn),> 100 µM,> 100 µM,> 100 µM,> 100 µM,
c1ccc2c(c1)CCc1[nH]c3c(c1-2)-c1ccccc1CC3,> 100 µM,> 100 µM,> 100 µM,> 100 µM,
O=c1cn[nH]c(=S)n1/N=C/c1c[nH]c2ccccc12,> 100 µM,> 100 µM,,,
COc1cc(C2C(Cl)C(=O)N2NC(=O)c2ccc(N)cc2)cc(Br)c1O (stereo not drawn),20.8 µM,24.3 µM,32.5 µM,33.3 µM,TGI (LXFL 529 NSCLC): 11.3 µM; TGI (M19-MEL melanoma): 32 µM; TGI (DLD-1 colon): 40.2 µM; TGI (DMS 114 small cell lung): 21.8 µM; TGI (XF 498 CNS): 30.7 µM; TGI (KM20L2 colon): 33.6 µM; TGI (SNB-78 CNS): 43.9 µM; TGI (DMS 273 small cell lung): 31.9 µM
C/C(=N\Nc1nc2cccnc2s1)c1ccccn1,,3.18 µM,,6.06 µM,
CC(C)(C)C1=CC(=C2C(=O)C(=O)c3ccccc3C2=O)C=C(C(C)(C)C)C1=O,> 100 µM,> 100 µM,> 100 µM,> 100 µM,TGI (LXFL 529 NSCLC): > 100 µM; TGI (M19-MEL melanoma): > 100 µM; TGI (DLD-1 colon): > 100 µM; TGI (DMS 114 small cell lung): 66.2 µM; TGI (HOP-18 NSCLC): > 100 µM; TGI (KM20L2 colon): > 100 µM; TGI (SNB-78 CNS): > 100 µM; TGI (DMS 273 small cell lung): > 100 µM
CC1CCC2(CC1)NC1=C(CC(C)CC1)C1=C2CC(C)CC1 (stereo not drawn),37.4 µM,45.1 µM,89.2 µM,59.7 µM,
CN1CN(c2ccccc2)C2(CCN(CCC3COc4ccccc4O3)CC2)C1=O (stereo not drawn),48.7 µM,23.9 µM,48.2 µM,> 100 µM,
CCOP(=O)(OCC)/C(C#N)=C/c1cnc[nH]1,> 100 µM,> 100 µM,> 100 µM,> 100 µM,
CC(C)(C)OC(=O)NCCCCC(NC(=O)C(Cc1c[nH]c2ccccc12)NC(=O)OCC1c2ccccc2-c2ccccc21)C(=O)N1CCCC1C(=O)NCC(N)=O (stereo not drawn) (Fmoc-WK(Boc)PG-NH2; configuration not given here),> 100 µM,> 100 µM,> 100 µM,> 100 µM,
O=C(O)c1ccc(C2SCc3nc4ccccc4n32)cc1 (stereo not drawn),> 100 µM,> 100 µM,> 100 µM,> 100 µM,
CC(C)(C)c1cc2c(O)c(c1)Cc1cc(C(C)(C)C)cc(c1O)Cc1cc(C(C)(C)C)cc(c1O)Cc1cc(C(C)(C)C)cc(c1O)Cc1cc(C(C)(C)C)cc(c1O)Cc1cc(C(C)(C)C)cc(c1O)Cc1cc(C(C)(C)C)cc(c1O)Cc1cc(C(C)(C)C)cc(c1O)C2,> 50 µM,> 50 µM,> 50 µM,> 50 µM,
CCOC(=O)C(=O)/C(=C/N1C(=O)CC(=O)NC1=S)C(=O)OCC,> 60.2 µM,> 100 µM,> 100 µM,> 100 µM,GI50 (TK-10 renal): > 100 µM
Fc1ccc(-c2sc(-c3cccs3)cc2Cc2cccs2)cc1,> 100 µM,> 100 µM,> 100 µM,> 100 µM,
COc1cccc(N(CN2C(=O)CCC2C(=O)O)C(C)=O)c1 (stereo not drawn),> 100 µM,> 100 µM,> 100 µM,> 100 µM,
CCOC(=O)c1c2c(c(O)c3ccccc3c(O)n(Cc3ccccc3)c1C)C(=O)C=CC2=O,> 100 µM,> 100 µM,> 100 µM,> 100 µM,
CN(c1cn(C2CC[C@@H](CO)O2)c(=O)[nH]c1=O)C1CCCCC1 (stereo partly drawn),> 100 µM,> 100 µM,> 100 µM,> 100 µM,

Compound,TGI (OVCAR-3 ovarian),TGI (HCC-2998 colon),TGI (TK-10 renal),TGI (SNB-75 CNS),other results
CN1CCC2(CC1)C(=NC1CCCCC1)NC(=S)N2c1ccccc1,,> 100 µM,> 100 µM,> 100 µM,
COC(=O)C1=C(C)C=C(N2CCOCC2)C(C(=O)OC)C1c1ccccc1 (stereo not drawn),> 10 µM,> 10 µM,> 10 µM,> 10 µM,
Cc1ccc(S(=O)c2sccc2C=O)cc1 (stereo not drawn),,> 100 µM,> 100 µM,94.9 µM,
O=C1CC(=O)NC(=NNS(=O)(=O)c2ccccc2)N1,> 100 µM,> 100 µM,> 100 µM,> 100 µM,
O=C(CNC(c1ccccc1)(c1ccccc1)c1ccccc1)NC1CCCCC1NC(=O)CNC(c1ccccc1)(c1ccccc1)c1ccccc1 (stereo not drawn),> 100 µM,> 100 µM,> 100 µM,,
Cc1nnc(N)nc1/C=C/c1c(O)ccc2ccccc12,,45.2 µM,> 100 µM,,
OCCOc1ccccc2cccc1-2,> 100 µM,> 100 µM,> 100 µM,> 100 µM,
CC(=O)OC12c3ccccc3-c3ccccc3C1C1C(=O)OC(=O)C12 (stereo not drawn),> 10 µM,> 10 µM,> 10 µM,> 10 µM,
Brc1ccc2c(c1)-c1nc3nc4c(cc3cc1CC2)CCc1ccc(Br)cc1-4,> 100 µM,> 100 µM,> 100 µM,> 100 µM,
COC(=O)[C@H](Cc1ccc(OC(C)(C)C)cc1)N[C@H](C)C(=O)N[C@@H](Cc1ccccc1)C(=O)OCc1ccccc1,> 100 µM,> 100 µM,> 100 µM,> 100 µM,
C=C(CN1CC2C[C@](C(=O)OC)(c3cc4ccccc4[nH]3)C1C(OC)C2OC)S(=O)(=O)c1ccccc1 (stereo partly drawn),10.2 µM,3.73 µM,17.4 µM,11.6 µM,
COc1ccccc1/C=C1\NC(=S)N(/C=C2\C(=O)Oc3ccccc3C2=O)C1=O,> 100 µM,> 100 µM,> 100 µM,> 100 µM,
COC(=O)[C@H](CC(C)C)Nc1c(O)c2c(c(O)c1Cl)C(=O)C=CC2=O,6 µM,> 10 µM,> 10 µM,> 10 µM,
CC(=O)Nc1nnc(S(C)(=O)=O)s1,> 100 µM,,> 100 µM,,
O=C(NCCNCCCNC(=O)c1cc(-c2ccccc2)nc2ccccc12)c1cccc(OCc2ccccc2)c1OCc1ccccc1,3.36 µM,2.59 µM,3.17 µM,3.39 µM,
COC1OC(COC(=O)c2cc(O)c(O)c(O)c2)C(OC(=O)c2cc(O)c(O)c(O)c2)C(OC(=O)c2cc(O)c(O)c(O)c2)C1OC(=O)c1cc(O)c(O)c(O)c1 (stereo not drawn),77.7 µM,> 100 µM,> 100 µM,> 100 µM,

# Source: PubChem BioAssay (NCI)
